{"source": "patent US20250049867A1", "about": "“[…] HERPESVIRUSES” (VIROGIN BIOTECH CANADA LTD., priority 2021, published 2025)", "key": {"[1]": {"system": "GL261 cells modified to express mNectin1", "assay": "Orthotopic mNectin1-expressing GL261 glioblastoma model, intratumoral virus injection, survival", "assay_type": "in vivo, mice", "conditions": "co-expressed with the mIL12 and anti-PD1 payload; GL261-luc-N1", "procedure": "In vivo experiments were conducted to test the efficacy of the HSV oncolytic virus encoding different payload molecules against glioblastoma. Two orthotopic mouse models were used. One orthotopic model used CT2A cells modified to express FLuc which enables imaging post-implantation. The other orthotopic model used GL261 cells modified to express mNectin1, which enabled HSV infection, and also to express FLuc which enabled imaging post-implantation. Cells were implanted intracranially in 12-week-old C57B16 mice by stereotactic injection, and one week later the tumors were injected with the indicated viruses.\nThe control virus contained only the BAC sequences but not the payload sequence. In the first set of experiments, viruses encoding mouse IL-12 (mIL-12) and/or anti-PD-1 antibody and the control virus were each injected intratumorally at the indicated time and dosage according to FIG. 22A and FIG. 22B.\nFor the combination screens, GL261-luc-N1 cells were intracranially implanted in 12-week-old C57B16 mice, then 1 week later the tumors were injected with the combination of viruses encoding various candidate payloads.\nGL261-luc-N1 or CT2A-luc-N1 cells were intracranially implanted in 12-week-old C57B16 mice, then 1 week later the tumors were injected with the indicated viruses."}, "[2]": {"system": "ONCR-1010 with UL30-L774F mutation (ONCR-1012)", "assay": "Acyclovir sensitivity plaque titer assay on Vero cell monolayers", "assay_type": "cell-based, HSV", "conditions": "96 h, 90% reduction in plaque titer, 4 days", "protocol": "(§1) Acyclovir can be used as a prodrug in HSV-TK mediated suicide gene therapy of cancer, which requires its phosphorylation by HSV thymidine kinase (TK). Virus sensitivity to acyclovir was assayed by adding increasing concentrations of the drug to intact Vero cell monolayers and then infecting with a standard dose of virus. The Vero cell monolayers were incubated for 4 days to allow for virus growth, and then the virus was harvested and the corresponding lysates assayed for virus by plaque assay. The IC90 was calculated as the amount of acyclovir that produced a 90% reduction in plaque titer compared to the untreated control."}, "ONCR-1010": {"system": "ONCR-1010", "assay": "Acyclovir sensitivity plaque titer assay on Vero cell monolayers", "assay_type": "cell-based, HSV", "conditions": "96 h, 90% reduction in plaque titer, 4 days", "protocol": "as §1"}, "[3]": {"conditions": "dosed orally; cited from earlier work"}}}
{"compound": "15-hydroxyprostaglandin dehydrogenase [PGDH, 15-hydroxyprostaglandin dehydrogenase [NAD(+)]]", "values": [{"measurement": "efficacy in combination screen (survival)", "setting": "[1]", "value": "improved efficacy"}]}
{"compound": "Nc1nc2c(ncn2COCCO)c(=O)[nH]1", "note": "[acyclovir]", "values": [{"measurement": "IC90", "setting": "[2]", "value": 1.84, "unit": "µg/mL"}, {"measurement": "IC90", "setting": "ONCR-1010", "value": 0.43, "unit": "µg/mL"}, {"measurement": "bioavailability of acyclovir in the CNS", "setting": "[3]", "value": "about 1.76 ug/ml"}]}
